Data set [1] relates to isolated naive human neutrophils. Kind of data set: Pseudopod formation test: protease inhibitors against pancreatic homogenate-induced neutrophil activation. Format: cell-based. The procedure:
For the pseudopod assay, venous blood is collected in heparinized tubes from healthy human volunteers and put on ice. It is important that heparin and not EDTA ([…]) be used as an anticoagulant, as the calcium-chelating properties of EDTA can affect neutrophil activation. […] Other chemicals for the Krebs-Henseleit buffer are from Fisher Scientific, Fair Lawn, N.J. The resuspended cells are then gently layered onto 2.5 ml of a 55% isotonic Percoll (Sigmal Chemical Company) solution and 2.5 ml of a 74% isotonic Percoll solution in deionized water. The suspension is centrifuged for 15 minutes at 600 G and the middle granulocyte layer is removed and resuspended in PBS to achieve a concentration of 10^6 neutrophils/ml. 100 μl aliquots of suspended neutrophils are added to 100 μl of test plasma or activating agent. This mixture is mixed and then incubated for 10 minutes at 27° C. After incubation 100 μl of 3% glutaraldehyde (Fisher Scientific) is added to stop the reaction. 100 μl of crystal violet in phosphate (pH: 7.4) buffer is then added to stain leukocyte nuclei on wet mount preparations. Freely suspended neutrophils with pseudopodia are identified by their segmented nuclei and the presence of cytoplasmic granules. One hundred neutrophils are counted. Cells with pseudopod projection greater than about 1 um are considered positive.
Rat homogenate was collected as described in detail in Example 5. Briefly, male Wistar rats (250-350 gm) were housed in a controlled environment and maintained on a standard pellet diet for at least three days before initiation of experimental procedures. Animals were cannulated via the femoral arteries and vein under general anesthesia using pentobarbital (50 mg/kg i.m.). The rats were exsanguinated and the heart, liver, spleen, small intestine, and pancreas removed. The organs were immediately washed and cleaned in cold 0.25 M sucrose solution. Then, the cleaned organs were vigorously homogenized in Krebs-Henseleit solution ([…]). Aliquots were filtered by centrifugation at 500 G for 10 min. Pancreatic homogenates were incubated for 2.5 hours at 38° C., stirred frequently. Incubated pancreatic homogenate as well as controls were tested against naive human donor neutrophils for pseudopod formation as described in Example 2.
To determine whether or not neutrophil activation by pancreatic homogenate is protease dependent, the pseudopod formation test was repeated by preincubation of isolated neutrophils with various protease inhibitors (50 μl) for 10 minutes followed by addition of pancreas homogenate (50 μl) and further incubation for 10 minutes. […] All protease inhibitors were the gift of Dr. Tony E. Hugli of The Scripps Clinic and Research Institute, with the exception of Complete™, an all-purpose protease inhibitor purchased from Boehringer Mannheim, Indianapolis, Ind. One of the components of Complete™ is EDTA (ethylenediaminetetra-acetic acid), a standard anti-coagulant and divalent cation chelator.
To determine whether the protease inhibitors were acting on the pancreatic homogenate or the neutrophils themselves, a new set of neutrophil pseudopod experiments was carried out. […] Appropriate controls were recorded as well as a positive control (10^−7 M fMLP) to determine the washed cells' ability to respond to stimuli. Formyl-methionyl-leucyl-phenylalanine (fMLP) was obtained from Sigma Chemical Company, St. Louis, Mo.

In data set [2] the test system is rats subjected to SAO shock. Kind of data set: Splanchnic arterial occlusion (SAO) shock with Futhan pretreatment. Format: in vivo, rat. An excerpt:
Rats randomly selected were weighed and anesthetized, and arterial and venous catheters were inserted which were used for blood pressure measurements and anesthesia, respectively. […] At the termination of the experiments arterial blood was drawn for determination of plasma peroxide concentration using a peroxide electrode measurement technique.
Male Wistar rats (250-320 g) were randomly divided into SAO shock (n=7) and SAO shock sham groups (n=6). Animals were cannulated via the femoral arteries and vein under general anesthesia using pentobarbital (50 mg/kg i.m.). No heparin was injected other than that needed to ensure open catheter lines (10U/ml Plasma-Lyte). One femoral artery was connected up to monitor continuous mean arterial pressure (MAP), while the other was used for the collection of blood samples. […] MAP and heart rate were recorded.

A short description of data set [3]: pH and solubility of Futhan. Format: physicochemical. The protocol:
The reasons for the ineffectiveness of Futhan in ameliorating SAO shock in initial experiments appeared to be due to the pH of Futhan in solution, which is approximately 3.5 at the concentration of I mg/ml in 5% glucose-deionized (DI) water as per the manufacturer's instructions. Under the established protocol, approximately 2 ml of this solution were injected at the rate of 0.05 ml every 5 minutes into an approximate rat blood volume of 20 ml. In sham-shocked animals (not reported here) the buffering capacity of blood is able to absorb any perturbations in pH. In shocked animals, however, the pH buffering capacity, especially of the pancreas and small intestine, is severely compromised. Thus, the injection of Futhan would contribute to irreversible acidosis. […] Although the animals recovered from these transient depressions of MAP, Futhan injected animals typically expressed a lower MAP than the saline-injected group. This difference was not significant.

The results in this text go back to patent publication US20030190368A1, “METHODS OF DIAGNOSIS AND TRIAGE USING CELL ACTIVATION MEASURES” (priority 1998, published 2003).

Entries after “also recorded” stand apart in the source; their conditions may differ.

In the case of `CS(=O)(=O)O.CS(=O)(=O)O.N=C(N)Nc1ccc(C(=O)Oc2ccc3cc(C(=N)N)ccc3c2)cc1` [Futhan, 6-amidino-2-naphthyl p-guanidinobenzoate dimethanesulfonate], the “percent neutrophil activation, Wash group” value in data set [1] (neutrophils incubated 10 min with Futhan 0.1 mg/ml, washed two times, then pancreatic homogenate 10 min) turned out to be 53.5±31%. In data set [1] (neutrophils preincubated 10 min with inhibitor (PMSF 1 mM; Complete 1 tablet/20 ml; Benzamidine 1150 μM; Futhan 0.1 mg/ml; aprotinin 20 μM), then homogenate 10 min, homogenate alone 85.1±11.5%), the “percent neutrophil pseudopod formation (activation) by rat pancreatic homogenate in presence of protease inhibitor” value is 30.3±11.8%. The “inhibition of pancreatic homogenate-induced neutrophil activation (in words)” value in data set [1] (pseudopod formation, rat pancreatic homogenate, dimethanesulfonate) is recorded as “abolished pancreatic homogenate-induced activation; also recorded: dose-dependent inhibition”. In data set [1] (washed neutrophils incubated with combined Futhan 0.1 mg/ml and pancreatic homogenate), the “percent neutrophil activation, Inhibitor group” value was 51.5±34%. Further, the “MAP and survival time, small bolus regimen” value in data set [2] (0.05 ml bolus every 5 minutes, 1, 3.3, 10, 20 mg Futhan/kg body wt, pretreatment 30 or 60 min) is recorded as “uniformly unable to restore MAP or increase survival times”. Further, the “blood pressure effect of Futhan injection” value in data set [2] (0.05 ml doses) is on record as “transient hypotension”. Further, the “mean arterial pressure after removal of arterial clamps” value in data set [2] (Futhan 3.3 mg/kg body wt/hour i.v. infusion pump, 60 min pretreatment, vs saline) is “significant reduction in the fall of blood pressure”. In data set [2] (Futhan 3.3 mg/kg body wt/hour infusion, 60 min pretreatment, vs saline controls, dimethanesulfonate), the “survival / mortality after SAO shock” value is given as “significant increase in survival; also recorded: prevented mortality”. Also, the “circulating plasma peroxide after SAO shock” value in data set [2] (Futhan 3.3 mg/kg body wt/hour infusion, vs control animals) is reported as “significantly lower levels of circulating peroxide production”. For the same molecule, in data set [2] (initial experiments, bolus injections), the “plasma peroxide formation after SAO shock, small bolus regimen” value is “ineffective”. Moreover, in data set [3] (I mg/ml in 5% glucose-deionized (DI) water), the “pH of Futhan in solution” value is reported as “approximately 3.5”. Further, the solubility entry in data set [3] (alcohol, rat serum, DMSO, balanced Tris (Trizma) buffer at physiologic pH) is listed as “insoluble”.
